These results are taken from patent publication US20240050400A1, “Use of the Sesquiterpene Lactone Tomentosin in the Treatment of Tumors Caused by Lymphoid Cell Lines” (Universita Degli Studi Di Sassari, priority 2021, published 2024).

In data set [1] the test system is MM.1S (of multiple myeloma) cells. The data set is described as follows: Cell proliferation (CellTiter-Glo) and cytotoxicity (CellTox Green) test, MM.1S. Type of data set: cell-based. As to conditions: MM.1S cells; for effect on cells (cell proliferation / cell death): 48 hours of treatment. On the procedure:
(§1) The molecules were tested at 7 different concentrations: 50 μM, 25 μM, 12.5 μM, 6.25 μM, 3.125 μM, 1.56 μM, 0.75 μM, in culture with lymphoid tumor (myeloma, lymphoma) cell lines.
(§2) Tested cell lines: • MM.1S (of multiple myeloma), cultivated in RPMI-1640 medium, 10% FBS, L-Glutamine, AA • RPMI-8226 (of multiple myeloma), cultivated in RPMI-1640 medium, 10% FBS, L-Glutamine, AA; • Raji (of Burkitt lymphoma), cultivated in RPMI-1640 medium, 10% FBS, L-Glutamine, AA; • MRC5 (of pulmonary fibroblasts), cultivated in DMEM medium, 10% FBS, L-Glutamine, AA, Pyruvate Sodium, NEAA.
(§3) After 48 hours of treatment, drug-induced cellular death was estimated by measuring the intensity of the fluorescence signal after staining the dead cells using a known method (CellTox Green Dye—Promega).
(§4) Soon afterwards, the number of live cells was evaluated by adding CellTiter Glo P (Promega) reagent, through which the cell lysis and the luminescence signal are directly proportional to the ATP levels in each sample.
(§5) 24 hours prior to the addition of the compound under examination, the cells resuspended at adequate concentrations were seeded in 384-well flat clear bottom black polystyrene TC-treated microplates (Corning 3764).
(§6) Each well contained 20 μL of cell suspension. The day after, […] of the molecules under examination, with integrated CellTox (Promega G8731) green dye, were added to each sample to obtain the desired treatment concentrations.
(§7) The seeding of the cells, the preparation of the serial dilutions, and the addition of the molecules to the cells were performed using an automated liquid pipetting platform (Gilson Pipetmax).
(§8) 48 hours after the treatment, the intensity of the global green fluorescence in each well was quantified using Biotek Cytation 5. For each sample, four images were taken to cover the whole area of the well. Image merging, processing and background removal were performed using the Gen5 software. Immediately after the fluorescence reading, 30 μL of CellTiter Glo reagent (Promega G7571) just prepared were added to each well, and each sample was mixed 5 times. Ten minutes later, a luminescence reading was taken. Three technical replicates for each condition under examination were plated.
(§9) CellTiter-Glo is a reagent used for determining the number of viable cells in a culture based on the quantification of ATP, which signals the presence of metabolically active cells.
(§10) The reagent is added directly to the samples, resulting in cell lysis and generation of a luminescent signal that is proportional to the quantity of ATP. The luminescence signal is quantified using Promega Glo-Max Discover.
(§11) The CellTox green dye measures the changes that have occurred in the integrity of the membrane following cell death. The test uses a dye which is excluded from viable cells while coloring the DNA of dead cells. When the dye binds to the DNA of the compromised cells, the fluorescent properties of the dye are enhanced, whereas viable cells produce no perceptible increase in fluorescence. Therefore, the fluorescent signal produced by the dye is proportional to cytotoxicity. Fluorescence intensity (GFI) is quantified by means of a Biotek Cytation 5 wide-field automated digital microscope, led cube 465 nm, filter cube excitation 469±25 nm, emission 525±25 nm.
(§12) Cell viability is calculated as relative cell count (R): […]
(§13) where T is the number of cells in the treated sample and U is the number of cells in the untreated sample. […]

Data set [2] relates to RPMI-8226 (of multiple myeloma) cells. The data set is described as follows: Cell proliferation (CellTiter-Glo) and cytotoxicity (CellTox Green) test, RPMI-8226. Format: cell-based. As to conditions: RPMI-8226 cells; for effect on cells (cell proliferation / cell death): 0.75-50 μM, 48 hours of treatment. On the procedure: The molecules were tested at 7 different concentrations: 50 μ[…], in culture with lymphoid tumor (myeloma, lymphoma) cell lines. Tested cell lines: • MM.1S (of multiple myeloma), cultivated in RPMI-1640 medium, 10% FBS, L-Glutamine, AA • RPMI-8226 (of multiple myeloma), cultivated in RPMI-1640 medium, 10% FBS, L-Glutamine, AA; • Raji (of Burkitt lymphoma), cultivated in RPMI-1640 medium, 10% FBS, L-Glutamine, AA; • MRC5 (of pulmonary fibroblasts), cultivated in DMEM medium, 10% FBS, L-Glutamine, AA, Pyruvate Sodium, NEAA. […] After 48 hours of treatment, drug-induced cellular death was estimated by measuring the intensity of the fluorescence signal after staining the dead cells using a known method (CellTox Green Dye-Promega). Soon afterwards, the number of live cells was evaluated by adding CellTiter Glo P (Promega) reagent, through which the cell lysis and the luminescence signal are directly proportional to the ATP levels in each sample. 24 hours prior to the addition of the compound under examination, the cells resuspended at adequate concentrations were seeded in 384-well flat clear bottom black polystyrene TC-treated microplates (Corning 3764). Each well contained 20 μL of cell suspension. […] The seeding of the cells, the preparation of the serial dilutions, and the addition of the molecules to the cells were performed using an automated liquid pipetting platform (Gilson […]). 48 hours after the treatment, the intensity of the global green fluorescence in each well was quantified using Biotek Cytation 5. […] Immediately after the fluorescence reading, 30 μL of CellTiter Glo reagent (Promega G7571) just prepared were added to each well, and each sample was mixed 5 times. Ten minutes later, a luminescence reading was taken. […] CellTiter-Glo is a reagent used for determining the number of viable cells in a culture based on the quantification of ATP, which signals the presence of metabolically active cells. The reagent is added directly to the samples, resulting in cell lysis and generation of a luminescent signal that is proportional to the quantity of ATP. The luminescence signal is quantified using Promega Glo-Max Discover. […] When the dye binds to the DNA of the compromised cells, the fluorescent properties of the dye are enhanced, whereas viable cells produce no perceptible increase in fluorescence. […] Fluorescence intensity (GFI) is quantified by means of a Biotek Cytation 5 wide-field automated digital microscope, led cube 465 nm, filter cube excitation 469±25 nm, emission 525±25 nm. Cell viability is calculated as relative cell count (R): R=T/U×100 where T is the number of cells in the treated sample and U is the number of cells in the untreated sample. […] Cell death is measured as green fluorescence intensity (GFI).
On the technique in general: Cellular ATP, detected with luciferase, serves as a proxy for viable cell number.

In data set [3] the test system is Raji (of Burkitt lymphoma) cells. The data set is described as follows: Cell proliferation (CellTiter-Glo) and cytotoxicity (CellTox Green) test, Raji. Type of data set: cell-based. As to conditions: for effect on cells (cell proliferation / cell death): 48 hours of treatment. The protocol:
as §1, §2, §3, §4, §5, §6, §7, §8, §9, §10, §11, §12, §13

Data set [4] relates to MRC5 (of pulmonary fibroblasts) non-tumor cells. The data set is described as follows: Cell proliferation (CellTiter-Glo) and cytotoxicity (CellTox Green) test, MRC5 non-tumor control. Format: cell-based. As to conditions: for IC50 relative to the maximum concentration tested: highest tested concentration 50 μM.
Method: The MRC5 cell line was used as a control to evaluate if these molecules were toxic also towards non-tumor cells.
Soon afterwards, the number of live cells was evaluated by adding CellTiter Glo P (Promega) reagent, through which the cell lysis and the luminescence signal are directly proportional to the ATP levels in each sample. […]
In data set [5] the test system is aggressive human melanoma cell lines. As to conditions: cited from earlier work.
The subject of data set [6] is MOLT-4 cell line of human leukemia. As to conditions: through inhibition of the mTOR/PI3K/Akt signalling pathway; cited from earlier work.
[7] abbreviates: highest tested concentration 50 μM.

With `C=C1C(=O)O[C@H]2CC(=C)[C@H]3CC[C@@](C)(O)[C@@H]3C[C@H]12` [Inuvisculide], the anti-proliferative activity result in data set [1] (0.75-50 μM) and in data set [3] (0.75-50 μM) was “low anti-proliferative activity” throughout. For the same molecule, the “IC50 relative to the maximum concentration tested” value in data set [1] (setting [7]), in data set [3] (setting [7]) and in data set [4] was “> the maximum concentration” throughout. In addition, the “effect on cells (cell proliferation / cell death)” value in data set [2] was “cytostatic effect”. Besides, the pro-apoptotic effect entry in data set [5] is “strong pro-apoptotic effect”.
In the case of `C=C1C(=O)O[C@@H]2C[C@H](C)C(CCC(C)=O)=CC[C@H]12` [Tomentosin], the “effect on cells (cell proliferation / cell death)” value in data set [1] (0.75-50 μM) was “cytotoxic effect”; in data set [2], “cytostatic effect”; in data set [3] (0.75-50 μM), “cytotoxic effect”. Further, in data set [4] (0.75-50 μM), the anti-proliferative activity result is “low anti-proliferative activity”. Also, the “IC50 relative to the maximum concentration tested” value in data set [4] is given as “> the maximum concentration”. Moreover, the “effect on cell proliferation and apoptosis” value in data set [6] was “inhibits cell proliferation and induces apoptosis”. The pro-apoptotic effect result in data set [5] is listed as “strong pro-apoptotic effect”.
One may read the IC50 as the concentration that inhibits the measured activity by half. Read a low IC50 as greater potency. On to `N.N.[Cl][Pt][Cl]` [cysplatin, Cisplatin], for which the “effect on cells (cell proliferation / cell death)” value was “reduced cell proliferation and increased cell death” in data set [1] (0.75-50 μM); “reduced cell proliferation and increased cell death” in data set [2]; “reduced cell proliferation and increased cell death” in data set [3] (0.75-50 μM). Also, the IC50 in data set [1] (after 72 hours of culture) was found to be 12.3 µM; in data set [2] (after 72 hours of culture), 14.9 µM; in data set [3] (after 72 hours of culture) it was 25.7 µM.
